Assay results from PMC10918830, “Biosynthesis of Cytidine Diphosphate-6-D-Glucitol for the Capsular Polysaccharides of Campylobacter jejuni” (Biochemistry, 2024).

Legend:
[1] = target: T1, NAD(P)-dependent oxidoreductase HS5.17 (CDP-6-D-glucitol synthase) (Campylobacter jejuni, UniProt A0A0U3AP28); test: X-ray crystal structure, […] Å; assay type: binding; settings: tag-free enzyme; ternary complex with NADP(H); pH 9.0
T1 construct: full-length, N-terminal His6 tag (pET-28a), E. coli expression; tag removed by TEV for the 8V4G crystals, tag kept for 8V4H; dimer

[2] = target: T1, NAD(P)-dependent oxidoreductase HS5.17 (CDP-6-D-glucitol synthase); test: X-ray crystal structure, […] Å; assay type: binding; settings: tagged enzyme; crystallized with NADP(H), which was not observed; pH 8.0
[3] = target: the molecule itself; test: crystal structure; tag-free enzyme crystallized with 5 mM CDP and 5 mM NADP(H), PEG 8000, hexyleneglycol, 100 mM CHES pH 9.0; 2.0 Å; dimer in the asymmetric unit
[4] = target: the molecule itself; test: crystal structure; tagged enzyme crystallized with 5 mM CDP-6-D-glucitol and 5 mM NADP(H), PEG 8000, 200 mM LiCl, 100 mM HEPPS pH 8.0; 2.2 Å; dimer in the asymmetric unit

Nc1ccn([C@@H]2O[C@H](COP(=O)(O)OP(=O)(O)O)[C@@H](O)[C@H]2O)c(=O)n1 [CDP]
X-ray crystal structure, 2.0 Å [1]: The first structure determined of the oxidoreductase was that in complex with NADP(H) and CDP

Nc1ccn([C@@H]2O[C@H](COP(=O)(O)OP(=O)(O)OC[C@@H](O)[C@@H](O)[C@H](O)[C@@H](O)CO)[C@@H](O)[C@H]2O)c(=O)n1 [compound 3, CDP-6-D-glucitol]
X-ray crystal structure, 2.2 Å [2]: The electron density was unambiguous for the CDP-6-D-glucitol ligands in both subunits

B1: NAD(P)-dependent oxidoreductase (HS5.17) from C. jejuni serotype HS:5, tag-free (enzyme, Campylobacter jejuni serotype HS:5)
chain: MNEILKKRLKLLKNNFGTHINKIANKKILITGANGYIGSILTLILHGNAKLYCLVRNKDKMIDRFQEICGDIDKIDIYEDLYKIQDKIDIVIHCAAPTQSDFFIENPIDTVDIIYTNTKNILDFSKKNNVEKIIFLSTMEIYGDVIGDNIVEDDIGKFSVTNIRNSYPLAKQISEFMVHSYSKKYSLSTAIVRLTQAIGPTAQINDNRVYMDFIRSAIKKSQITLFTKGETKREYIDVFDVATAIIFVMCEKKMFEIYNISNPNIFISIYDLAKTISAKLNVQVVFDLQRDTSQYLPSFSRRLNSKKIYQLGWTPLFDLNQSLDDMIKYIKEVNE
notes: putative NAD(P)-oxidoreductase HS5.17 of Campylobacter jejuni serotype HS:5 (ATCC 43433), UniProt A0A0U3AP28; gene synthesized and codon-optimized, in pET-28a(+) between NdeI and XhoI; electron density seen from Met 1 to Asn 334; His 0 left over from the purification tag; Crystallized with CDP and NADP(H) (PDB 8V4G); also called CDP-6-D-glucitol synthase; nucleotide sugar reductase; source: E. …
stoichiometry N [3]: 2

B2: NAD(P)-dependent oxidoreductase (HS5.17) from C. jejuni serotype HS:5, N-terminally histidine-tagged (enzyme, Campylobacter jejuni serotype HS:5)
chain: MNEILKKRLKLLKNNFGTHINKIANKKILITGANGYIGSILTLILHGNAKLYCLVRNKDKMIDRFQEICGDIDKIDIYEDLYKIQDKIDIVIHCAAPTQSDFFIENPIDTVDIIYTNTKNILDFSKKNNVEKIIFLSTMEIYGDVIGDNIVEDDIGKFSVTNIRNSYPLAKQISEFMVHSYSKKYSLSTAIVRLTQAIGPTAQINDNRVYMDFIRSAIKKSQITLFTKGETKREYIDVFDVATAIIFVMCEKKMFEIYNISNPNIFISIYDLAKTISAKLNVQVVFDLQRDTSQYLPSFSRRLNSKKIYQLGWTPLFDLNQSLDDMIKYIKEVNE
notes: putative NAD(P)-oxidoreductase HS5.17 of Campylobacter jejuni serotype HS:5 (ATCC 43433), UniProt A0A0U3AP28; gene synthesized and codon-optimized, in pET-28a(+) between NdeI and XhoI; electron density continuous from Met 1 to Asn 334, tag seen from Glu (-7) to Met 1 in Subunit B; Crystallized with CDP-6-D-glucitol (PDB 8V4H); also called CDP-6-D-glucitol synthase; nucleotide sugar reductase; …
stoichiometry N [4]: 2
